In patent US9174951B2, “Glucose transporter inhibitors” (The Ohio State University Research Foundation, priority 2012, dated 2015):

Key:
[1] = target: T1, GLUT1 (Homo sapiens, UniProt P11166); assay: [3H]2-DG uptake into LNCaP cells overexpressing GLUT1; assay type: cell-based; conditions: for IC50: LNCaP cells overexpressing GLUT1, read-out: IC50 in inhibiting GLUT1-mediated [3H]2-DG uptake; for inhibition at 5 µM: LNCaP cells transfected with GLUT1, 30 min
T1 construct: The full length GLUT1, GLUT4, and GLUT9 ORF cDNA clones were purchased from Addgene; EGFP (from the pEGFP-N2 vector); host or cells: LNCaP
T1 sequence (P11166 1-492): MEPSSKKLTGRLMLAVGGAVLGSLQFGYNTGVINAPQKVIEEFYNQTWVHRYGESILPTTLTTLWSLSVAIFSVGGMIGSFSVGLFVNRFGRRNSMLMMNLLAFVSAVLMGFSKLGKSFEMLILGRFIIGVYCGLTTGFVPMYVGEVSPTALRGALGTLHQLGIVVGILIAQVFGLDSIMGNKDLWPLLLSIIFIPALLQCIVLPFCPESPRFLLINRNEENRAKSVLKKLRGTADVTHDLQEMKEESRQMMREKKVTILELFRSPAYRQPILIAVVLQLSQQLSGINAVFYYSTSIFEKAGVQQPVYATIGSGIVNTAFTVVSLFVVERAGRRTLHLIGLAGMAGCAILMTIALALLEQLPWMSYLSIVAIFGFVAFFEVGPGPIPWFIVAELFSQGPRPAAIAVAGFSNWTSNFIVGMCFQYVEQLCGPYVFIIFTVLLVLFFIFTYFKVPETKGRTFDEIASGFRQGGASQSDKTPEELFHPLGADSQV
From the text: (§1) As information regarding the expression pattern of individual GLUT members in LNCaP cells was lacking, quantitative real time polymerase chain reaction (qRT-PCR) was used to assess the mRNA levels of the hypoxia-responsive GLUT1 and GLUT3, and three other representative GLUT members, including the class I GLUT2 and GLUT4 and the class II GLUT9. Among these five members, LNCaP cells expressed GLUT1 and, to a much lesser extent, GLUT9, while the mRNA levels of GLUTs2-4 were negligible (FIG. 3B). To examine the isoform specificity of these inhibitors, LNCaP cells were ectopically transfected with plasmids encoding GLUT1, GLUT3, GLUT4, or GLUT9 vis-à-vis the pCMV control vector so that the increased glucose uptake in GLUT-transfected cells relative to pCMV control cells was indicative of the activity of the ectopically expressed GLUT protein.
(§2) Glucose Uptake Assay. LNCaP cells were seeded in six-well plates (3×10^5 cells/well) for 24 h. Cells were washed twice with Krebs-Ringer phosphate buffer (126 mM NaCl, 2.5 mM KCl, 25 mM NaHCO3, 1.2 mM NaH2PO4, 1.2 mM MgCl2, 2.5 mM CaCl2, pH 7.4) and were then treated with individual agents in Krebs-Ringer phosphate buffer. After 1.5 h, glucose uptake was initiated by adding 1 mL Krebs-Ringer buffer containing […] [^3H]2-DG (PerkinElmer Life Science) and […] non-radioactive 2-DG and was terminated by washing with cold PBS. The cells were lysed in […] lysis buffer (10 mM Tris-HCl pH 8.0, 0.1% SDS) and aliquots were taken for measurement of radioactivity using a scintillation counter (Beckman LS6500).
Plasmid Construction, Transient Transfection and Immunoblotting. The full length GLUT1, GLUT4, and GLUT9 ORF cDNA clones were purchased from Addgene (Cambridge, Mass.) and GLUT3 ORF cDNA was purchased from Origene Technologies (Rockville, Md.). GLUT1, GLUT3, and GLUT9 were subcloned into the HindIII/SalI sites and GLUT4 was subcloned into the EcoRI/SalI sites of pEGFP-N2 expression vector (Clontech, Palo Alto, Calif.). Transfections were performed by electroporation using Nucleofector kit R of the Amaxa Nucleofector system (Lonza, Walkersville, Md.) according to the manufacturer's protocol. Immunoblotting was performed using cells lysates harvested with SDS lysis buffer (1% SDS, 50 mM Tris-HCl pH 8.0, 10 mM EDTA) containing 1× protease inhibitor cocktail (Sigma) and phosphatase inhibitor and were electrophoresed in 8˜12% SDS polyacrylamide gels and then transferred onto nitrocellulose membranes. After blotting in 5% nonfat dry milk, the membranes were incubated with primary antibodies at 1:1,000 dilution in TBS-Tween 20 overnight at 4° C., and then secondary antibodies conjugated with horseradish peroxidase at 1:5,000 dilution in TBS-Tween 20 for 1 hour at room temperature. […]

[2] = tested on: LNCaP cells; assay: MTT cell viability assay, LNCaP; assay type: cell-based, human; conditions: for IC50: 72 h, MTT, 10% FBS
Protocol: Cell Viability Assay. Cell viability was determined using the 3-(4,5-dimethylthiazol-2-yl)-2,5-diphenyltetrazolium bromide (MTT) assay. Cancer cells were seeded at 5000 cells/well and normal cells were seeded at 8000 cells/well in 96-well plates and incubated in 10% FBS-supplemented medium for 24 h. Cells were then treated with individual agents for 72 h. Drug-containing medium was replaced with medium containing MTT (0.5 mg/mL), followed by incubation at 37° C. for 1 h. After removal of medium, the reduced MTT dye in each well was solubilized in 100 μL of DMSO and absorbance at 570 nm was measured.
Compound 30 was evaluated for antiproliferative activity in panels of different human cancer cells lines, including those of prostate, breast and pancreatic cancers. In all experiments, cells were treated with a range of concentrations of Compound 30 in the presence of 10% fetal bovine serum (FBS). Cell viability was then determined after 72 h of treatment using the 3-(4,5-dimethylthiazol-2-yl)-2,5-diphenyltetrazolium bromide (MTT) assay. […] It is noteworthy that despite this high antiproliferative potency, normal human prostate epithelial cells (PrECs) were resistant to the cytotoxic effect of Compound 30 even at 10 μM.

[3] = target: T2, GLUT3 (Homo sapiens, UniProt P11169); assay: [3H]2-DG uptake into LNCaP cells overexpressing GLUT3; assay type: cell-based; conditions: for inhibition at 5 µM: LNCaP cells transfected with GLUT3, 30 min
T2 construct: GLUT3 ORF cDNA was purchased from Origene Technologies; EGFP (from the pEGFP-N2 vector); host or cells: LNCaP
T2 sequence (P11169 1-496): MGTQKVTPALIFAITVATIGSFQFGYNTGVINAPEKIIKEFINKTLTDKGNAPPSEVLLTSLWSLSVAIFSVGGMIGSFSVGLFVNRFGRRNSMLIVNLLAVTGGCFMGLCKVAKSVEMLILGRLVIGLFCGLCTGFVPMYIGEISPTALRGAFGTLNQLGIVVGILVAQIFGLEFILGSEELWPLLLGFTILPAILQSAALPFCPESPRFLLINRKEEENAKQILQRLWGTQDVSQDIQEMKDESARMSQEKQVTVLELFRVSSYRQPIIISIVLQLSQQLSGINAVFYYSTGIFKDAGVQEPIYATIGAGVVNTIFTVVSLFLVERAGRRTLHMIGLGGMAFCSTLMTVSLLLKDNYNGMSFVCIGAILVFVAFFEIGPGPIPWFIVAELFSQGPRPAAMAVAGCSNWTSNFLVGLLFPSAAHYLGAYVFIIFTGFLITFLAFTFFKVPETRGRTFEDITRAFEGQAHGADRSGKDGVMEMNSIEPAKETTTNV
From the text: as §1, §2
Plasmid Construction, Transient Transfection and Immunoblotting. The full length GLUT1, GLUT4, and GLUT9 ORF cDNA clones were purchased from Addgene (Cambridge, Mass.) and GLUT3 ORF cDNA was purchased from Origene Technologies (Rockville, Md.). GLUT1, GLUT3, and GLUT9 were subcloned into the HindIII/SalI sites and GLUT4 was subcloned into the EcoRI/SalI sites of pEGFP-N2 expression vector (Clontech, Palo Alto, Calif.). […]

Compound | IC50 [1] [µM] | inhibition at 5 µM [1] [%] | IC50 ([2]; Homo sapiens, LNCaP) [nM] | IC50 [2] [nM] | improvement over compound 1 (IC50, [3H]-2DG uptake and viability of LNCaP cells) ([2]; relative to compound 1) [fold] | IC50 ([3]; LNCaP cells overexpressing GLUT3, read-out: IC50 for GLUT3-mediated [3H]2-DG uptake) [µM] | inhibition at 5 µM [3] [%]
CC(CN1C(=O)S/C(=C\c2ccc(O)c(C(F)(F)F)c2)C1=O)(CC(F)(F)F)CC(F)(F)F [Compound 30, 5-(4-Hydroxy-3-trifluoromethyl-benzylidene)-3-[4,4,4-trifluoro-2-methyl-2-(2,2,2-trifluoro-ethyl)-butyl]-thiazolidine-2,4-dione] | 2 | 73 | 1500 | 1500 to 1700 | 40 | ≥ 5 | 48
CCC(CC)CN1C(=O)S/C(=C\c2ccc(O)c(C(F)(F)F)c2)C1=O [Compound 5] | 5 | 53 | 4200 |  |  |  | 41
